{"source": "patent US20230128972A1", "about": "“Anat Inhibitors and Methods of Use Thereof” (Atomwise Inc., priority 2020, published 2023)", "biological_target": "T1, aspartate N-acetyltransferase (ANAT) (Homo sapiens, UniProt Q8N9F0)", "T1 construct": "6xHis (C); made in house; host or cells: E. coli BL21(DE3)", "T1 sequence (Q8N9F0 1-302)": "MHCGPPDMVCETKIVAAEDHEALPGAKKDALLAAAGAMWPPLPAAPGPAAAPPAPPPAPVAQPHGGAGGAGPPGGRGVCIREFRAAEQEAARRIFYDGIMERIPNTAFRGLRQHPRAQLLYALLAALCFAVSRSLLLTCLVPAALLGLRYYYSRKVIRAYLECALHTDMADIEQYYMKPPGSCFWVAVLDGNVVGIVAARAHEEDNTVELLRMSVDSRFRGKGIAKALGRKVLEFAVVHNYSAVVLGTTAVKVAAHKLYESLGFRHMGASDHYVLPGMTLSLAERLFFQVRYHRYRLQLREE", "assay": "ANAT in vitro activity assay (DTNB, coenzyme A production)", "format": "biochemical", "settings": "for Ki: dose-response protocol, competitive inhibition fit, Km for L-aspartate 160 μM; for potency against ANAT: dose-response protocols, in words", "description": "The experimental assay was based on a custom protocol developed by the Viola lab described previously (see, e.g., Thangavelu et al., 2017, “Design and optimization of aspartate N-acetyltransferase inhibitors for the potential treatment of Canavan disease,” Bioorganic & Medicinal Chemistry, 25(3), pp. 870-885). Each of the purchased compounds was tested in an initial screen at 1 mM, followed by a second screen of the initial inhibitors at 50 μM.\nThe challenge of solubilizing and purifying the membrane-associated enzyme ANAT has been addressed through the creation of a fusion construct with maltose binding protein (MBP) as a fusion partner, as described previously. Briefly, aspartate ANAT was expressed with an N-terminal MBP tag in E. coli BL21(DE3) cells. A 6×His-tag was inserted at the C-terminal of the enzyme to facilitate purification. 20 ml LB media was grown overnight from a single colony in the presence of kanamycin at a final concentration of 50 μg/ml at 37° C. The overnight culture was then diluted into 2 L LB media and grown with shaking at 37° C. until the OD600 reached 0.6. Isopropyl β-D-thiogalactopyranoside (IPTG) was then added at a final concentration of 0.1 mM for induction, and cell growth continued at 16° C. for 16-20 hours. The cell culture was harvested by centrifugation at 11,000 rpm for 15 min. The cells were then resuspended in binding buffer consisting of 20 mM potassium phosphate, pH 7.4, 300 mM NaCl, 20 mM imidazole, and 10% glycerol. The cells were lysed by adding lysozyme (50 μg/ml of buffer) and DNAse (5 μg/ml of buffer) in an ultrasonic dismembrator, followed by clarification of the cells by centrifugation at 11,000 rpm to remove the insoluble cell debris. The clarified supernatant was loaded onto a Ni-NTA column and eluted with a 20-300 mM imidazole gradient in the binding buffer using an AKTA chromatography system. The fractions containing active enzyme purified from the Ni-NTA column were pooled and loaded onto a dextrin-Sepharose column for further purification. The MBP-ANAT fusion enzyme was eluted from this column by using a 0-10 mM maltose gradient. SDS-PAGE gel was run to confirm the molecular weight and purity of the enzyme.\nANAT activity was measured by monitoring the production of coenzyme A using 5,5′-dithio-bis-[2-nitrobenzoic acid] (DTNB). […] The increasing absorption at 412 nm was monitored for up to 30 min during the reaction. 10% DMSO was maintained in the first screen while 20% DMSO was used in the second screen to dissolve the insoluble or partially soluble compounds in the assay wells.\nKi was calculated using the competitive inhibition routine within the nonlinear regression module of GraphPad Prism 8.3.0 with the following equation: […]\nwhere Km for L-aspartate was set to 160 μM, and [I] and [S] denote the concentrations of the inhibitor and substrate, respectively.", "data": [{"smiles": "Nc1cc(N)nc(SCc2ncc(-c3ccc(F)cc3)o2)n1", "note": "[Formula 1, 2-{[5-(p-Fluorophenyl)-1,3-oxazol-2-yl]methylthio}-4,6-pyrimidinediamine]", "values": [{"measurement": "Ki", "value": 8.2, "unit": "µM"}, {"measurement": "potency against ANAT", "value": "low-micromolar"}]}, {"smiles": "CCOC(=O)c1sc(NC(=O)COC(=O)Cn2c(=O)cnc3ccccc32)cc1C", "note": "[Formula 2, Ethyl 3-methyl-5-{2-[(2-oxo-1H-quinoxalin-1-yl)acetoxy]acetylamino}-2-thenoate]", "values": [{"measurement": "Ki", "value": 8.5, "unit": "µM"}, {"measurement": "potency against ANAT", "value": "low-micromolar"}]}, {"smiles": "Cc1nnc(SCc2nnc(-c3c(-c4ccccc4)noc3C)o2)s1", "note": "[Formula 3, 5-(5-Methyl-3-phenyl-4-isoxazolyl)-2-[(5-methyl-1,3,4-thiadiazol-2-ylthio)methyl]-1,3,4-oxadiazole]", "values": [{"measurement": "Ki", "value": 9.1, "unit": "µM"}, {"measurement": "potency against ANAT", "value": "low-micromolar"}]}, {"smiles": "Cc1c(C(=O)O)sc2[nH]c(=O)cc(CSc3nnc(C4CC4)[nH]3)c12", "note": "[Formula 4, 4-[(5-Cyclopropyl-4H-1,2,4-triazol-3-ylthio)methyl]-3-methyl-6-oxo-1-thia-7-aza-7H-indene-2-carboxylic acid]", "values": [{"measurement": "Ki", "value": 4.5, "unit": "µM"}, {"measurement": "potency against ANAT", "value": "low-micromolar"}]}, {"smiles": "O=C(OCCSc1ccc([N+](=O)[O-])c2nonc12)c1ccc(Cl)cc1Cl", "note": "[Formula 5, 2-(7-Nitro-2,1,3-benzofurazan-4-ylthio)ethyl 2,4-dichlorobenzoate]", "values": [{"measurement": "Ki", "value": 0.91, "unit": "µM"}, {"measurement": "potency against ANAT", "value": "low-micromolar"}]}]}
